Experimental data as given in US9738660B2, “Selective inhibitors for protein kinases and pharmaceutical composition and use thereof” (National Chiao Tung University, priority 2014, dated 2017).
Where two headings read alike, the source gives them in different places.

Tests used:
Assay in all cases: Kinase Profiler, residual kinase activity
Format in all cases: biochemical
[1] = target: T1, PLK1 (Homo sapiens, UniProt P53350); details: PLK1; inhibitor at 500 nM; read-out: percentage of the remaining kinase activity
T1 construct: purchased Research Biology Corp. (http://www.reactionbiology.com)
T1 sequence (P53350 whole entry): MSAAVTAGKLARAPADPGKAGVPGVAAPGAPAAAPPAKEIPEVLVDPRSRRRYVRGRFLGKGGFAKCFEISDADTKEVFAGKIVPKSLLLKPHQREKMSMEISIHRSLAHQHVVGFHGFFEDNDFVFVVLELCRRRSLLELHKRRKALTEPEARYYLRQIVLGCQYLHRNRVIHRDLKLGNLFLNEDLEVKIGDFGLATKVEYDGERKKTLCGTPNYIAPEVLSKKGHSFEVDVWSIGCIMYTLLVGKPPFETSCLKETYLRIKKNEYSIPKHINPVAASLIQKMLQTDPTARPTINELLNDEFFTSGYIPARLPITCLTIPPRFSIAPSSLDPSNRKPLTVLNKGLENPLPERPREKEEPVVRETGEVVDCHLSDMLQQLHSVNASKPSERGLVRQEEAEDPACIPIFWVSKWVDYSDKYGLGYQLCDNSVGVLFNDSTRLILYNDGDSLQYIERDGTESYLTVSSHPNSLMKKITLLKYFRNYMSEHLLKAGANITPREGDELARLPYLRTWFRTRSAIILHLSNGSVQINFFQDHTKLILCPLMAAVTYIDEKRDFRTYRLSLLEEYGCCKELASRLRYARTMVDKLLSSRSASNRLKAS

[2] = target: CDK2 (Homo sapiens, UniProt P24941); details: CDK2; inhibitor at 500 nM; read-out: percentage of the remaining kinase activity
[3] = target: LCK (Homo sapiens, UniProt P06239); details: LCK; inhibitor at 500 nM; read-out: percentage of the remaining kinase activity
Sequence of LCK (P06239 whole entry): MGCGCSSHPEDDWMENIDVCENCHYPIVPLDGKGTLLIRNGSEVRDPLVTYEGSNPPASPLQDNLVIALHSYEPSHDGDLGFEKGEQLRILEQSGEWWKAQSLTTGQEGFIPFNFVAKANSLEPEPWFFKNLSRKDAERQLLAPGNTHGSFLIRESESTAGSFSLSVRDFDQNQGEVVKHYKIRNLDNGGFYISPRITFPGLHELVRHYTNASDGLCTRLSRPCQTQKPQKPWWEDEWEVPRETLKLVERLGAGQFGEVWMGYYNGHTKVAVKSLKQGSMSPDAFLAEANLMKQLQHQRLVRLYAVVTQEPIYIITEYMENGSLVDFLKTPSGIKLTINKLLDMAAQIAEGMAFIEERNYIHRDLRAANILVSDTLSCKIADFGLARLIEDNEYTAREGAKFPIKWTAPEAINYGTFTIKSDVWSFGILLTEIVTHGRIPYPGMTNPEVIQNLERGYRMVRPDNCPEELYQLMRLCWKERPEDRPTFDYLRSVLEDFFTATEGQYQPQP

[4] = target: T2, MAPKAPK2 (Homo sapiens, UniProt P49137); details: MAPKAPK2; inhibitor at 500 nM; read-out: percentage of the remaining kinase activity
T2 construct: purchased Research Biology Corp. (http://www.reactionbiology.com)
T2 sequence (P49137 whole entry): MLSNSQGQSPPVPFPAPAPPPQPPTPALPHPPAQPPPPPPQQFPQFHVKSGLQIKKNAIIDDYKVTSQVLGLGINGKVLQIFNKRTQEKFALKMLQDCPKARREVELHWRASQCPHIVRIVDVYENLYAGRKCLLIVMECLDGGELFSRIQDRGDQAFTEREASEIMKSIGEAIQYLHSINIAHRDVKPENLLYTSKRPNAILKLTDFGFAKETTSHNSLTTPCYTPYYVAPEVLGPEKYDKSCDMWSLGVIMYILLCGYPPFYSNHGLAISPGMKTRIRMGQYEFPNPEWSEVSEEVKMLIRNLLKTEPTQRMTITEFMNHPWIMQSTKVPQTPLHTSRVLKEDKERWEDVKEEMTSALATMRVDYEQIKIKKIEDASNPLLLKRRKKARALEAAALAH

[5] = target: BTK (Homo sapiens, UniProt Q06187); details: BTK; inhibitor at 500 nM; read-out: percentage of the remaining kinase activity
Sequence of BTK (Q06187 whole entry): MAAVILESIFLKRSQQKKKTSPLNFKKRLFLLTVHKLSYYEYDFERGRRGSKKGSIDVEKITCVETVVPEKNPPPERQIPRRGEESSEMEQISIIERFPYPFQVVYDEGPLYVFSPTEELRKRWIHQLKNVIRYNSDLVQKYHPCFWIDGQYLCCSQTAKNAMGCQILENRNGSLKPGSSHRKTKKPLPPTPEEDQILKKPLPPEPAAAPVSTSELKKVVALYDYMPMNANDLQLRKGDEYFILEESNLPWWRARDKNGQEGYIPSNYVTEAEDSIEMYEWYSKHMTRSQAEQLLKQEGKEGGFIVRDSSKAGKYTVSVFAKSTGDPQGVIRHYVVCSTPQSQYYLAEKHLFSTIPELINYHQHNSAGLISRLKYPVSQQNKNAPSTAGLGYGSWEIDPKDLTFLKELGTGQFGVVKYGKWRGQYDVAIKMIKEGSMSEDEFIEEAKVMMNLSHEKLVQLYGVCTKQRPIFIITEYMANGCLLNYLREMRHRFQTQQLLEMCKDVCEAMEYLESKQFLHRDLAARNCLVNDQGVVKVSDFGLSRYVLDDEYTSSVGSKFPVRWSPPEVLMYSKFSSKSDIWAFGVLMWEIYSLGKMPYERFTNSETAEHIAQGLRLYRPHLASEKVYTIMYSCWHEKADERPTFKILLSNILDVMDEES
Excerpt: (§1) Kinase Profiler services provided by […]. (http://www.reactionbiology.com) were used to analyze the data of the 9 type-S protein kinase inhibitors against the 40 types of protein kinases.

[6] = target: CLK1 (Homo sapiens, UniProt P49759); details: CLK1; inhibitor at 500 nM; read-out: percentage of the remaining kinase activity
Sequence of CLK1 (P49759 whole entry): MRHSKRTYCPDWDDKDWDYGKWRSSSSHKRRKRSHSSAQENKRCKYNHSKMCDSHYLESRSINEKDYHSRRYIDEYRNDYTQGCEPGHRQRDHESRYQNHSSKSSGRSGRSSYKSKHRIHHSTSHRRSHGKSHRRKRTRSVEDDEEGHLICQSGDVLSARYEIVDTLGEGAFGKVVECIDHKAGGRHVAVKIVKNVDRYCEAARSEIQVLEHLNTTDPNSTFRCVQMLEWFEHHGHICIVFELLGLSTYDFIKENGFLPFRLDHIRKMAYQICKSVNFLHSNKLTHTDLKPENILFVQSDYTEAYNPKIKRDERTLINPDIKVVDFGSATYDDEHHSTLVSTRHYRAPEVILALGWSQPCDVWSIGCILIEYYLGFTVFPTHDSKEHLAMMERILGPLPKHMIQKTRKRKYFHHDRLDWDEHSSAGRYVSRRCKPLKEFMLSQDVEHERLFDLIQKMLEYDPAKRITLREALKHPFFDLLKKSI
Excerpt: as §1

[7] = target: T3, STK11 (Homo sapiens, UniProt Q15831); details: STK11; inhibitor at 500 nM; read-out: percentage of the remaining kinase activity
T3 sequence (Q15831 1-433): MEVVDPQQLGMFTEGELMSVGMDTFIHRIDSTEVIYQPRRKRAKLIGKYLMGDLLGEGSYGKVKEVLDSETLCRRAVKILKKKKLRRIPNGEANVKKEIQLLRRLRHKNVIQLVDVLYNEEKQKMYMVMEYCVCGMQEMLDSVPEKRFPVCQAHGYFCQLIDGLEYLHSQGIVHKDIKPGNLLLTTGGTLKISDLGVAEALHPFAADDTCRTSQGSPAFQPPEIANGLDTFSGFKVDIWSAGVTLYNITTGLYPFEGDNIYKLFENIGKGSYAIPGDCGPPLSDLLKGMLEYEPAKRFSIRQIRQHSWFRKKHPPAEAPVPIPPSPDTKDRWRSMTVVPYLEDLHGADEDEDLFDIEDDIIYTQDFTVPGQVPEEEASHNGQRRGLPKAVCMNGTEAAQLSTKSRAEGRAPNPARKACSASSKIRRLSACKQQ
T3 sequence (Q7RTN6 1-431 partner): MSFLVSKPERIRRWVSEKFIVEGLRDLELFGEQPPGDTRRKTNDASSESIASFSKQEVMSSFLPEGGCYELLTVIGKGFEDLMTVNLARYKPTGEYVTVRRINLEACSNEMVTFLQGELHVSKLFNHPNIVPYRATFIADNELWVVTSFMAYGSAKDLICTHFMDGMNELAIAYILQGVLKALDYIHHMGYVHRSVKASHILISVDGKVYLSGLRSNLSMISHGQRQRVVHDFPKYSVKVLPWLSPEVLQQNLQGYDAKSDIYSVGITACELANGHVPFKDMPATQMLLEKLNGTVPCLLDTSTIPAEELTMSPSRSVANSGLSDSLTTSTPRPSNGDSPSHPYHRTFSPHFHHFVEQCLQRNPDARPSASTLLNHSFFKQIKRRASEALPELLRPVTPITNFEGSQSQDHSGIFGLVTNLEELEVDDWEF
T3 sequence (Q9Y376 1-341 partner): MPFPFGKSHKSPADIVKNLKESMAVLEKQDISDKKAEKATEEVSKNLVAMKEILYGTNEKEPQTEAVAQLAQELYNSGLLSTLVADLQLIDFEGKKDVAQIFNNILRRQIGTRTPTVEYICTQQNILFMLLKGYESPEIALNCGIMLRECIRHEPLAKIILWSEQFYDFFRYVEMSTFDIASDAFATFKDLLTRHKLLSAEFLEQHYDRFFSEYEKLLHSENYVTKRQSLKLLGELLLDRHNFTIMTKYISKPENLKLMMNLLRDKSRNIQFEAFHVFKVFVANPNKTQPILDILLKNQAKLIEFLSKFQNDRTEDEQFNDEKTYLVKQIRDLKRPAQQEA
Excerpt: as §1

[8] = target: PIM1 (Homo sapiens, UniProt P11309); details: read-out: percentage of the remaining kinase activity
Sequence of PIM1 (P11309 whole entry): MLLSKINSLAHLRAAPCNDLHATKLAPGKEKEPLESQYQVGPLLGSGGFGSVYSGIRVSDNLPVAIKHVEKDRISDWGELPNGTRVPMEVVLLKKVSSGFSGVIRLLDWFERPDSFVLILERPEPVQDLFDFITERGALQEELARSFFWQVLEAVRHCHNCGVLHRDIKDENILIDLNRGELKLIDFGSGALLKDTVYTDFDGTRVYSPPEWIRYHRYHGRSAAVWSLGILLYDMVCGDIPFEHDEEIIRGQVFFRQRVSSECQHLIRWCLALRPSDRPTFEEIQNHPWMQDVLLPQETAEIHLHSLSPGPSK
Excerpt: as §1

[9] = target: T4, MAP2K1 (Homo sapiens, UniProt Q02750); details: MAP2K1; inhibitor at 500 nM; read-out: percentage of the remaining kinase activity
T4 construct: purchased Research Biology Corp. (http://www.reactionbiology.com)
Excerpt: as §1

[10] = target: T5, INSR (Homo sapiens, UniProt P06213); details: read-out: percentage of the remaining kinase activity
T5 construct: purchased Research Biology Corp. (http://www.reactionbiology.com)
Excerpt: as §1

[11] = target: KDR (Homo sapiens, UniProt P35968); details: KDR; inhibitor at 500 nM; read-out: percentage of the remaining kinase activity
Sequence of KDR (P35968 20-1356): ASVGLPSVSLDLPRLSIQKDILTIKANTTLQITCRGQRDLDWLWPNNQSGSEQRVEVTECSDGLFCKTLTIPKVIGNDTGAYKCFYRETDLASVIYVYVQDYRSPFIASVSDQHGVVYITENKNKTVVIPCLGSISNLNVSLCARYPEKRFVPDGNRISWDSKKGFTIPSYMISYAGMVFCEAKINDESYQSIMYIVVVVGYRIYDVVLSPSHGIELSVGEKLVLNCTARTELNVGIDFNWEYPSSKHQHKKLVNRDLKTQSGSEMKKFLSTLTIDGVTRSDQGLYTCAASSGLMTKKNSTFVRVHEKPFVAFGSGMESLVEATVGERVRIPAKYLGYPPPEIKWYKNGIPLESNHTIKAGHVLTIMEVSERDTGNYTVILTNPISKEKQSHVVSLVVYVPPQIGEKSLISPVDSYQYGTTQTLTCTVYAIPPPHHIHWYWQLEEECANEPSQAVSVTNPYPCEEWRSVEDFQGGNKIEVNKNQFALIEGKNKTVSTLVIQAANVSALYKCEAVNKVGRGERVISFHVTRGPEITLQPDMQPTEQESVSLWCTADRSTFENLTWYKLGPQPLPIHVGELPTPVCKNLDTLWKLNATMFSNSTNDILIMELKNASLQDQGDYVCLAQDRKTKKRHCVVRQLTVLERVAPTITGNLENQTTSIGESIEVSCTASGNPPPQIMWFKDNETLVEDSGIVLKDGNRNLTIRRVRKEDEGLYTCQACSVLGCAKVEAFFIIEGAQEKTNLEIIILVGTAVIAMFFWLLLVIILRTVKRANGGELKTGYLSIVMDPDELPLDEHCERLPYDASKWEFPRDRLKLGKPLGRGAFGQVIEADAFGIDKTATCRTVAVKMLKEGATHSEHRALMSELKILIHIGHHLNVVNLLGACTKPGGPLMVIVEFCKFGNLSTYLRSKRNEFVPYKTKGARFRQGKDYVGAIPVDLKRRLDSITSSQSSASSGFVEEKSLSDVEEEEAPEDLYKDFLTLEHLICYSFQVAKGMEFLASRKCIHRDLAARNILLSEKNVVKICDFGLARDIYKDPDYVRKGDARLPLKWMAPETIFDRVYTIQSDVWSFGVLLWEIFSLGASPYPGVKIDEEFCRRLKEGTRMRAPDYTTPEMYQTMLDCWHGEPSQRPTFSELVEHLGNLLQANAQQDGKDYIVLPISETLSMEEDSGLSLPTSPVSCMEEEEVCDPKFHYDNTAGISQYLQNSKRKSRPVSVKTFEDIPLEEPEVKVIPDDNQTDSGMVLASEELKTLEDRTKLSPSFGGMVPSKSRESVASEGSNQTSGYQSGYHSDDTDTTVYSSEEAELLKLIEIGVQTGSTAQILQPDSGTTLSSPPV
Excerpt: as §1

[12] = target: PAK4 (Homo sapiens, UniProt O96013); details: PAK4; inhibitor at 500 nM; read-out: percentage of the remaining kinase activity
Excerpt: as §1

[13] = target: GSK3B (Homo sapiens, UniProt P49841); details: GSK3B; inhibitor at 500 nM; read-out: percentage of the remaining kinase activity
Sequence of GSK3B (P49841 whole entry): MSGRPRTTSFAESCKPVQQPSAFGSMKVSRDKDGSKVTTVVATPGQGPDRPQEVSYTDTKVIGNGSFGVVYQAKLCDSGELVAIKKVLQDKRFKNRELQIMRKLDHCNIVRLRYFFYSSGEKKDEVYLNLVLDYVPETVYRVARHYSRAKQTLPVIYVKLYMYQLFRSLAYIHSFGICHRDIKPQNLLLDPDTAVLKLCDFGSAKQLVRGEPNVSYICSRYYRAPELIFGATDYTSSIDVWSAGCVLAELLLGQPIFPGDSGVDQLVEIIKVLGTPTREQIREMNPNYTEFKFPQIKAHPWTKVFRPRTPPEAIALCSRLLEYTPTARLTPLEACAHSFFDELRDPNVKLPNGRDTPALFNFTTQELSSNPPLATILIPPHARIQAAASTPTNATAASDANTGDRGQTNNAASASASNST
Excerpt: as §1

[14] = target: T6, EGFR (Homo sapiens, UniProt P00533); details: EGFR; inhibitor at 500 nM; read-out: percentage of the remaining kinase activity
T6 construct: purchased Research Biology Corp. (http://www.reactionbiology.com)
Excerpt: as §1

[15] = target: T7, MAP3K7 (Homo sapiens, UniProt O43318); details: MAP3K7; inhibitor at 500 nM; read-out: percentage of the remaining kinase activity
T7 construct: purchased Research Biology Corp. (http://www.reactionbiology.com)
T7 sequence (O43318 1-303 limits assumed): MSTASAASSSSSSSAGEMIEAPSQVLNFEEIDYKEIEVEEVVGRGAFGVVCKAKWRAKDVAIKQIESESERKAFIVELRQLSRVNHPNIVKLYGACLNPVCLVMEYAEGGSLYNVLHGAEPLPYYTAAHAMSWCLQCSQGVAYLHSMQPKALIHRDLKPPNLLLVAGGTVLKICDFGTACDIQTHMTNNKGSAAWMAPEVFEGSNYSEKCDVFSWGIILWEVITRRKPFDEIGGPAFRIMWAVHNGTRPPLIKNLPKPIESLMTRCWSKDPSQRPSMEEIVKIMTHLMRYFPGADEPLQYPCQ
Excerpt: as §1

Row | Compound | remaining activity at 0.5 µM [1] [%] | remaining activity at 0.5 µM [2] [%] | remaining activity at 0.5 µM [3] [%] | remaining activity at 0.5 µM [4] [%] | remaining activity at 0.5 µM [5] [%] | remaining activity at 0.5 µM [6] [%] | remaining activity at 0.5 µM [7] [%] | remaining activity at 0.5 µM ([8]; PIM1, inhibitor at 500 nM) [%] | remaining activity at 0.5 µM [9] [%] | remaining activity at 0.5 µM ([10]; INSR, inhibitor at 500 nM) [%] | remaining activity at 0.5 µM [11] [%] | remaining activity at 0.5 µM [12] [%] | remaining activity at 0.5 µM [13] [%] | remaining activity at 0.5 µM [14] [%] | remaining activity at 0.5 µM [15] [%] | remaining activity at 0.5 µM [8] [%] | remaining activity at 0.5 µM [10] [%]
1 | COC1C(N(C)C(=O)C(N)Cc2cn(C(=O)OC(C)(C)C)c3ccccc23)CC2OC1(C)n1c3ccccc3c3c4c(c5c6ccccc6n2c5c31)C(=O)NC4 (stereo not drawn) [Compound 2] | 97.9 | 76.6 | 97 | 106 | 90.6 | 107 | 106 | 88.9 | 105 | 97.9 | 102 | 110 | 94.2 | 110 | 103 |  | 
2 | CN[C@@H]1C[C@H]2O[C@@](C)([C@@H]1OC)n1c3ccccc3c3c4c(c5c6ccccc6n2c5c31)C(=O)NC4 [STU, staurosporine, reference compound] |  |  |  |  |  |  |  |  | 11.5 |  |  |  |  |  |  | 0.6 | 16.2
3 | COC1C(N(C)C(=O)C(N)Cc2ccc(OC(C)(C)C)cc2)CC2OC1(C)n1c3ccccc3c3c4c(c5c6ccccc6n2c5c31)C(=O)NC4 (stereo not drawn) [Compound 4] | 104 | 57.5 | 68.8 | 108 | 65.4 | 98.6 | 113 | 44.2 | 110 | 84.8 | 50.8 | 95.2 | 86.6 | 108 | 98.6 |  | 
4 | COC1C(N(C)C(=O)C(N)CCC(=O)OC(C)(C)C)CC2OC1(C)n1c3ccccc3c3c4c(c5c6ccccc6n2c5c31)C(=O)NC4 (stereo not drawn) [Compound 6] | 104 | 55 | 44 | 105 | 43.6 | 86.6 | 104 | 43 | 101 | 72.3 | 42.4 | 80.8 | 79.7 | 108 | 84.2 |  | 
